#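 Method: 48-hour compound exposure of cells in 96-well plates, five concentrations, linear interpolation of endpoints. TGI: concentration producing complete growth inhibition.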
# Tests used:
# Experiment in all cases: DTP human tumour cell line panel, 48 h
# [1] = tested on: 786-0 renal
# [2] = tested on: BT-549 breast
# [3] = tested on: CAKI-1 renal
# [4] = tested on: CCRF-CEM leukemia
# [5] = tested on: DU-145 prostate
# [6] = tested on: HOP-62 NSCLC
# [7] = tested on: HOP-92 NSCLC
# [8] = tested on: MALME-3M melanoma
# [9] = tested on: MDA-N
# [10] = tested on: NCI-H23 lung
# [11] = tested on: OVCAR-3 ovarian
# [12] = tested on: SF-295 CNS
# [13] = tested on: SF-539 CNS
# [14] = tested on: SN12C renal
# [15] = tested on: T-47D breast
# [16] = tested on: TK-10 renal
# [17] = tested on: UACC-257 melanoma
# [18] = tested on: UACC-62 melanoma
# [19] = tested on: MDA-MB-435
# [20] = tested on: NCI-H522 lung
SMILES,TGI [1] [µM],TGI [2] [µM],TGI [3] [µM],TGI [4] [µM],TGI [5] [µM],TGI [6] [µM],TGI [7] [µM],TGI [8] [µM],TGI [9] [µM],TGI [10] [µM],TGI [11] [µM],TGI [12] [µM],TGI [13] [µM],TGI [14] [µM],TGI [15] [µM],TGI [16] [µM],TGI [17] [µM],TGI [18] [µM],TGI [19] [µM],TGI [20] [µM]
Cn1c(=O)cc(NCCc2ccccc2)[nH]c1=O,> 100,> 100,> 100,> 100,> 100,> 100,> 100,> 100,20.5,> 100,36.6,97.6,> 100,> 100,> 100,> 100,> 100,> 100,–,–
O=C(O)C1(Cc2ccc3c(c2)CCC3)Cc2ccccc2C1=O (configuration not stated),> 100,> 100,–,> 100,> 100,> 100,87.3,> 100,> 100,> 100,> 100,> 100,> 100,> 100,> 100,> 100,> 100,> 100,> 100,–
COC(=O)c1nc(-c2nc(CCNC(=O)OC(C)(C)C)sc2Cl)sc1Cl,> 100,> 100,–,> 100,> 100,> 100,67.2,> 100,> 100,> 100,> 100,> 100,> 100,–,–,> 100,> 100,> 100,> 100,–
O=C(NCCNCCNC(=O)C(F)(F)F)C(F)(F)F,> 100,> 100,> 100,> 100,> 100,> 100,–,> 100,> 100,> 100,> 100,> 100,–,> 100,> 100,> 100,> 100,> 100,> 100,–
Cc1cnoc1NS(=O)(=O)c1ccc(Nc2nnc(/C=C/c3c(O)ccc4ccccc34)c(=O)n2N)cc1,77.1,53.9,88.9,> 100,> 100,> 100,> 100,65.5,82.2,32,60.1,> 100,–,95.3,82,–,–,52.5,76.3,–
CCOP(=O)(OCC)[C@]12C[C@@H](C)C=C[C@H]1COC2=O,> 100,> 100,> 100,> 100,> 100,> 100,–,> 100,> 100,> 100,> 100,> 100,> 100,> 100,> 100,> 100,> 100,> 100,> 100,> 100
Cc1cc(=O)oc2c3c(ccc12)OC(c1ccc(Br)cc1)CC3=O (configuration not stated),25.5,11.4,43.8,9.11,–,21.8,–,71.3,> 100,27.5,24.3,23.9,27.1,> 100,1.18,27.1,27.9,23.7,16.9,18
CCOC(=O)C1=COC(C)(c2ccccc2)CC1=O (configuration not stated),> 100,> 100,> 100,–,> 100,> 100,–,–,> 100,> 100,> 100,> 100,> 100,> 100,> 100,> 100,> 100,> 100,> 100,> 100
CC(=O)c1sc(Nc2ccc(Cl)c(Cl)c2)nc1C,> 100,> 100,> 100,–,> 100,> 100,–,> 100,> 100,> 100,> 100,> 100,> 100,> 100,> 100,> 100,> 100,> 100,> 100,–
CN(C)CCc1ccnc2nc(-c3ccc4ccccc4c3)cn12,63.2,69,> 100,> 100,> 100,> 100,–,> 100,> 100,46.2,72,> 100,–,75.9,> 100,40.7,> 100,> 100,> 100,24.8
CCN(CC)c1ccc2cc(C(=O)Nc3nc(C45CC6CC(CC(C6)C4)C5)cs3)c(=O)oc2c1,> 100,> 100,> 100,> 100,> 100,> 100,> 100,> 100,> 100,> 100,> 100,> 100,> 100,> 100,–,> 100,> 100,–,> 100,> 100
CC(C)(CC#N)c1cc(CC(C)(C)c2cc(CC(C)(C)c3cc(C(C)(C)C4(C)OCCO4)no3)no2)no1,43.1,> 100,87.2,> 100,> 100,> 100,–,> 100,> 100,> 100,> 100,> 100,–,> 100,> 100,> 100,> 100,> 100,> 100,> 100
CCOC(=O)/C(C[C@H]1OC(C)(C)O[C@@H]1[C@H]1COC(C)(C)O1)=N/O,> 100,> 100,> 100,> 100,> 100,> 100,> 100,> 100,> 100,> 100,> 100,> 100,> 100,> 100,–,> 100,> 100,> 100,> 100,> 100
CC(C)c1cccc(C(=O)NCCN(C)C)c1[N+](=O)[O-],> 100,97.4,> 100,> 100,> 100,> 100,–,> 100,> 100,> 100,> 100,> 100,> 100,> 100,> 100,> 100,> 100,> 100,> 100,> 100
COc1ccc([C@]23CCN(S(=O)(=O)c4ccc(C)cc4)[C@H]2[C@H](CO)C2(CC3)OCC(C)(C)CO2)cc1OC,> 100,> 100,> 100,> 100,> 100,> 100,> 100,> 100,> 100,> 100,> 100,> 100,–,> 100,> 100,> 100,> 100,> 100,> 100,> 100
NC(=S)N/N=c1\cc(C(=O)Nc2ccc([N+](=O)[O-])cc2[N+](=O)[O-])oc2ccccc12,> 100,> 100,> 100,> 100,> 100,> 100,> 100,–,> 100,> 100,> 100,> 100,> 100,> 100,–,> 100,> 100,> 100,> 100,> 100
COc1ccc(N=Nc2ccc3oc(=O)c(C(=O)Nc4ccc(Cl)cc4)cc3c2)cc1,> 10,–,> 10,–,> 10,> 10,> 10,> 10,> 10,> 10,> 10,> 10,> 10,> 10,> 10,> 10,> 10,–,> 10,> 10
Nc1nc(NCC2(CO)CCC2)cc(=O)[nH]1,> 100,> 100,> 100,> 100,> 100,> 100,> 100,> 100,> 100,> 100,> 100,> 100,–,> 100,> 100,–,> 100,> 100,> 100,> 100
CC(=O)Oc1cc(C)c(OC(C)=O)c2c1[C@H]1CC[C@]3(C)[C@@H](OC(C)=O)CC[C@H]3[C@@H]1CC2,43.1,30.7,31.5,43.5,31.5,34.4,23.7,36,28.2,34.8,32.1,37.2,35.4,33.2,–,31.6,30,32.8,27.7,32.6
COc1ccc(NS(=O)c2ccccc2OC)cc1 (configuration not stated),> 100,–,68.6,> 100,> 100,> 100,–,41.1,> 100,> 100,> 100,> 100,35.9,> 100,35.2,> 100,> 100,20.5,> 100,52.5
O=C1CCCCCC1CC(Sc1ccccc1)Sc1ccccc1 (configuration not stated),> 100,–,> 100,> 100,> 100,> 100,> 100,> 100,> 100,> 100,> 100,> 100,> 100,–,> 100,> 100,> 100,> 100,> 100,> 100
CC(=O)OC1CC[C@@]2(C)C(C1)CC(OC(C)=O)[C@@H]1C2CC(OC(C)=O)[C@]2(C)C(C(C)CC=C(c3ccc(Cl)cc3)c3ccc(Cl)cc3)CCC12 (some centres not stated),> 100,–,–,95.2,–,> 100,–,–,> 100,–,–,> 100,> 100,> 100,> 100,> 100,> 100,–,> 100,> 100
Nc1cc(N2CCOCC2)nc(=O)n1-c1ccc(Cl)cc1,> 100,> 100,> 100,> 100,> 100,> 100,> 100,–,> 100,> 100,> 100,> 100,> 100,> 100,> 100,–,> 100,> 100,> 100,–
C/C(=N\Nc1nc2ccccc2o1)c1cc(C)ncn1,24.3,> 100,42.5,> 100,> 100,> 35.3,> 21.7,33.1,> 100,> 43.7,> 54.7,–,5.77,> 100,–,–,–,–,> 100,–
COc1cc([C@@H]2c3cc4c(cc3[C@@H](c3c(O)cc(O)c5c3O[C@H](c3ccc(O)c(O)c3)[C@H](OC(=O)c3cc(O)c(O)c(O)c3)C5)[C@H]3COC(=O)[C@H]23)OCO4)cc(OC)c1OC,> 100,> 100,> 96.6,16.2,> 100,> 100,> 100,–,> 100,> 100,> 21.9,> 41.8,> 100,> 100,> 100,> 100,> 100,> 100,7.23,> 100
